In article PMC2769490 (Journal of the American Chemical Society, 2009):

Biological target: rabbit muscle actin (Oryctolagus cuniculus, UniProt P68135)
Experiment: microcalorimetry
Format: binding

Question: Which Kd does the source give for O=C(c1ccccc1O)c1[nH]c(Cl)c(Cl)c1-n1c(C(=O)c2ccccc2O)cc(Cl)c1Cl [compound 6, marinopyrrole A] here?
Answer: 120 ± 200 nM
